Experiments:
[1] = Half life in human at 12 g, po administered as single dose; type: ADME, organism-based; settings: in vivo
[2] = Drug uptake in human serum at 4 g/day, po administered for 3 months; type: ADME, organism-based; settings: read-out: Drug uptake
[3] = Drug metabolism in human urine assessed as compound sulfate conjugate at 3.6 g/day, po measured after 0.5 and 1 hr; type: ADME, organism-based; settings: in vivo
Plasma [4] = experiment: Drug metabolism in human plasma assessed as compound sulfate conjugate at 3.6 g/day, po measured after 0.5 and 1 hr; type: ADME, organism-based
[5] = Tmax in human at 12 g, po administered as single dose; type: ADME, organism-based; settings: in vivo
[6] = Drug uptake in human serum at 8 g/day, po administered for 3 months; type: ADME, organism-based; settings: read-out: Drug uptake
[7] = Cmax in human at 10 g, po administered as single dose; type: ADME, organism-based; design: dose 10 g, route oral; settings: in vivo
[8] = Drug uptake in human normal colorectal tissue at 3.6 g/day, po; type: ADME
U138MG = experiment: Inhibition of PI3K in human U138MG cells assessed as decrease in phosphorylated AKT level by western blot analysis; type: cell-based
[9] = Tmax in human at 10 g, po administered as single dose; type: ADME, organism-based; settings: in vivo
[10] = Drug uptake in human serum at 6 g/day, po administered for 3 months; type: ADME, organism-based; settings: read-out: Drug uptake
[11] = Drug metabolism in human urine assessed as compound glucuronide conjugate at 3.6 g/day, po measured after 0.5 and 1 hr; type: ADME, organism-based; settings: in vivo
[12] = Drug uptake in human malignant colorectal tissue at 3.6 g/day, po; type: ADME
[13] = Half life in human at 10 g, po administered as single dose; type: ADME, organism-based; settings: in vivo
[14] = Drug excretion in human urine at 3.6 g/day, po; type: ADME, tissue-based
[15] = Plasma concentration in human at 3.6 g/day, po measured after 0.5 and 1 hr; type: ADME, organism-based
Plasma [16] = experiment: Plasma concentration in human at 2 g, po; type: ADME
Plasma [17] = experiment: Drug metabolism in human plasma assessed as compound glucuronide conjugate at 3.6 g/day, po measured after 0.5 and 1 hr; type: ADME, organism-based
[18] = Cmax in human at 12 g, po administered as single dose; type: ADME, organism-based; design: dose 12 g, route oral; settings: in vivo
Homo sapiens = experiment: Drug metabolism in human assessed as ratio of glucuronide to sulfate at 10 and 12 g, po administered as single dose; type: ADME, organism-based; settings: in vivo

- half-life [1]: 6.77 h
- concentration at 3 months [2]: 510 nM
- Drug metabolism [3]: 19 nmol/L
- Drug metabolism (Plasma [4]): 8.9 nmol/L
- Tmax [5]: 3.29 h
- concentration at 3 months [6]: 1770 nM
- Cmax [7]: 2300 ng/mL
- Drug uptake [8]: 12.7 nmol/g
- Tmax [9]: 3.29 h
- concentration at 3 months [10]: 630 nM
- Drug metabolism [11]: 210 nmol/L
- Drug uptake [12]: 7.7 nmol/g
- half-life [13]: 6.77 h
- Drug excretion [14]: 0.1 µmol/L
- concentration at 1 h [15]: 11.1 nM
- Cp (Plasma [16]): 10 ng/mL
- Drug metabolism (Plasma [17]): 15.8 nmol/L
- Cmax [18]: 1730 ng/mL
- Ratio (Homo sapiens): 1.92
Compound: COc1cc(/C=C/C(=O)CC(=O)/C=C/c2ccc(O)c(OC)c2)ccc1O [CURCUMIN]
- inhibition (U138MG): 80%

From ChEMBL document CHEMBL3763013, “Prospective of curcumin, a pleiotropic signalling molecule from Curcuma longa in the treatment of Glioblastoma” (Eur J Med Chem, 2016)
